Results from ChEMBL document CHEMBL3621159, “Discovery of an orally active subtype-selective HDAC inhibitor, chidamide, as an epigenetic modulator for cancer treatment” (Medchemcomm, 2014).

How the values were obtained:
[1] = Cytotoxicity against human hematopoietic malignant cells assessed as growth inhibition; assay type: functional
[2] = Cmax in patient at 32.5 mg, po administered as single dose; assay type: ADME, organism-based; design: dose 32.5 mg, route oral; details: human, in vivo
[3] = AUC in patient at 32.5 mg, po administered as single dose; assay type: ADME, organism-based; details: human, in vivo
[4] = Cytotoxicity against human solid tumor cells assessed as growth inhibition; assay type: functional
[5] = Half life in patient at 25 to 50 mg, administered as single dose; assay type: ADME, organism-based; details: human, in vivo

Cmax [2]: 312 nM
AUC [3]: 2.24 µM·h
half-life [5]: 24 h
Structure (SMILES): Nc1cc(F)ccc1NC(=O)c1ccc(CNC(=O)/C=C/c2cccnc2)cc1 [TUCIDINOSTAT]
GI50 [1]: 1.86 µM
GI50 [4]: 6.65 µM
